# Data: publication PMC10120551, “Novel Glu-based pyrazolo[3,4-d]pyrimidine analogues: design, synthesis and biological evaluation as DHFR and TS dual inhibitors” (Journal of Enzyme Inhibition and Medicinal Chemistry, 2023)
# Tests used:
# [1] = tested on: HSF (Normal human skin fibroblast) cells; experiment: MTT cytotoxicity assay; type: cell-based; conditions: HSF normal fibroblasts, 48 h, mean ± SD from triplicates
# Description: The results hinted that 6i elicited stronger cytotoxicity and higher selectivity for cancer than normal cells.
# (§1) The MTT assay was carried out according to the procedure cited earlier. Briefly, in a 96-well plate, either cancer or normal cells were seeded (10^6 cells/cm^2; 100 µL/well) and incubated for 12 h at 37 °C and CO2 (5%), then serial dilutions of compound 6i were added and incubated for 48 h using DMSO control (0.5% V/V). MTT (3-(4,5-dimethylthiazoyl)-2,5-diphenyl-tetrazolium bromide; Cat. No. M-5655) 5 mg/mL was then added. After 4 h incubation, the formed MTT formazan crystals were solubilised by 10% Triton X-100 plus 0.1 N HCl in anhydrous isopropanol. The absorbance was read using a Bioline plate reader at λ570–630 nm[25–29]. The selectivity of 6i towards HSF cells was also determined as follows[30]^,[31]: SI=IC50HSF cells/IC50of cancer cells
# [2] = tested on: OVCAR-3 (Ovarian Cancer); experiment: MTT cytotoxicity assay; type: cell-based, human; conditions: Homo sapiens, OVCAR-3, 48 h, OVCAR-3; MTT, 48 h; mean ± SD from triplicates
# Description: as §1
# [3] = tested on: PC-3 (Prostate cancer); experiment: MTT cytotoxicity assay; type: cell-based, human; conditions: Homo sapiens; PC-3; MTT, 48 h; mean ± SD from triplicates
# Description: as §1
# [4] = tested on: MCF-7 (Breast cancer); experiment: MTT cytotoxicity assay; type: cell-based, human; conditions: Homo sapiens, MCF7; MCF-7; MTT, 48 h; mean ± SD from triplicates
# Description: as §1
# [5] = tested on: full panel of 59 cancer cells; experiment: NCI one-dose screen (SRB), full panel; type: cell-based, human; conditions: mean over full panel of 59 cell lines, 10 µM single dose; for inhibition at 10 µM: Homo sapiens, read-out: MGI% (mean growth inhibition percentage)
# Description: The growth percentage (G%) and cell viability of the herein target compounds 6a–l, 7a,b, and 9a–c have been screened towards a full panel of 59 cancer cells at NCI’s Developmental Therapeutics Program (NCI-DTP, MD, USA)[21]. The submitted analogues were initially examined for preliminary in vitro anticancer activity using sulforhodamine B (SRB) assay at 10 µM as a single dose to evaluate cell growth and viability according to the procedure of Drug Evaluation Branch[22]^,[23].
# Different types of tumours – colon, NSCLC, leukaemia, CNS, renal, breast, ovarian, melanoma, and prostate cancers – were investigated as a full panel of 59 cell lines, and the attained results are cited in Figures S1–S17 (see Supplementary Material) where the value recorded is the growth relative to that of both the negative control and zero-time number of cells in which both growth inhibition (GI%; 0–100%) and lethality (L%; 0–100%) percentages can be identified. The growth inhibition means percentages (MGI%) for the examined target analogues towards the different treated 59 cancer cells were presented in Figure 2.
# The designed analogues were submitted to NCI-Chemotherapeutic Agents Repository (MD, USA) for screening on a panel of 59 cancer cell lines. All compounds were initially examined at 10 µM concentration (Single-Dose Screen), and then the most efficient analogue 6i was screened further at 0.01–100 µM (Five-Dose Screen). The screening procedures were performed according to NCI-Drug Evaluation Branch protocol using SRB protein assay, as described previously[21]^,[66]. The experimental procedures were detailed in the Supporting Information.
smiles,measurement,setting,value
"CN(Cc1cnc2nc(N)nc(N)c2n1)c1ccc(C(=O)N[C@@H](CCC(=O)O)C(=O)O)cc1 [MTX, methotrexate, reference compound]",IC50,[1],13.7 ± 0.69 µM
same,IC50,[2],6.31 ± 0.32 µM
same,IC50,[3],2.72 ± 0.14 µM
same,IC50,[4],0.58 ± 0.03 µM
CCOC(=O)CC[C@H](NC(=O)c1ccc(NC(=O)CSC2=NC(C)=C(C(=O)OCC)[C@@H](c3ccc(Cl)cc3)N2)cc1)C(=O)OCC [Compound 9b],inhibition at 10 µM,[5],33.9%
CCOC(=O)CC[C@H](NC(=O)c1ccc(NC(=O)Cn2cnc3c(c(SC)nn3-c3ccc(Br)cc3)c2=O)cc1)C(=O)OCC [Compound 6k],MGI% (mean growth inhibition percentage),[5],failed to demonstrate MGI%
CCOC(=O)CC[C@H](NC(=O)c1ccc(NC(=O)CSC2=NC(C)=C(C(=O)OCC)[C@@H](c3ccc(Br)cc3)N2)cc1)C(=O)OCC [Compound 9c],inhibition at 10 µM,[5],36.9%
